The text below walks through data of patent US5869271A, “G-beta-gamma regulated phosphatidylinositol-3' kinase” (Onyx Pharmaceuticals, priority 1997, dated 1999).

For assay [1], the target named is free p120 PI3K catalytic subunit (Sus scrofa, UniProt O02697). In words: PI3K assay on free recombinant p120 (Sf9-derived). The class given is biochemical, porcine.
Method: Assays contained either 7 nM p101/p120 or 36 nM p120 alone (final concentrations) which were incubated with various reagents; 10 mM NaF and 30 μM AlCl3 (A/F) ; 1 μM Gβγ-subunits (βγ); 2 μM Gα-GDP; 100 nM wortmannin (W) or 50 μM tyrosine phosphorylated peptide (PY) for a total of 15 minutes (at 0° C.) prior to starting the assays by adding [γ^32 P]-ATP; [^32 P]-incorporated into [^32 P]-PtdIns(3,4,5) P3 was quantified. The data shown are means (n=2).
Purified aliquots of Sf9 -derived or pig neutrophil cytosol-derived PI3K were diluted in ice-cold 0.12M NaCl, 25 mM HEPES, 1 mM EGTA, 1 mM DTT, 1 mg-ml^-1 BSA, 1% betaine, 0.02%, w/v, Tween-20, pH 7.4, 0° C. to an appropriate extent, then 5 μl aliquots were stored on ice until assayed. […] 30 μl of a mixture of phospholipids with or without Gβγs and/or Gαs (either GDP-bound or activated) was added to the 5 μl fractions, or 10 μl of beads, and mixed. After 10 minutes on ice, 5-10 μl of last wash buffer, supplemented with MgCl2 to give a final concentration in the extant assay volume of 3.5 mM, was added and mixed. Six minutes later, 5 μl of last wash buffer was added (to give a final assay volume of 50 μl) containing [^32 ]-ATP (typically 10 μCi assay^-1, Amersham, PB10168) and 3.5 mM MgCl2, tubes were mixed and transferred to a 30° C. water bath. […]
A further assay has as its system neutrophils. Particulars: cited from earlier work.
The target of assay [2] is T1, PI3K activity in α-(EE)-p101 immunoprecipitates from U937 cells (Homo sapiens, UniProt P48736).
T1 construct: U937 cells (human) contain an endogenous PI3K catalytic subunit; expressed in transfected cells; host or cells: U937 (p101 transfected, catalytic subunit endogenous)
In words: PI3K assay on α-(EE)-p101 immunoprecipitates from transfected U937 cells. The class given is biochemical.
Method: U937 cells were transiently transfected with mammalian expression vectors encoding either (EE)120 or (EE)101, co-transfected in combination with mammalian expression vectors encoding myc101, myc120, or an irrelevant control myc fusion protein, as indicated. A total of 40 μg of vector DNA was used. After co-transfection, the cells lysed, precleaned and immunoprecipitated with protein G sepharose covalently cross-linked to α-(EE) monoclonal antibody as described more fully in the Examples herein. The resulting immunoprecipitates were washed and Gβγ-activated (1 μM, final concentration) PI3K activity was assayed. The PI3K activity detected in immunoprecipitates from cells transfected with irrelevant (EE)-tagged protein, either with or without Gβγs was subtracted from the data shown (these were means of 1896 dpm and 2862 dpm in the absence and presence of Gβγs, respectively).
If the PI3K assays were performed on immunoprecipitates from U937 cells (see following examples) then the PI3K was immobilized on 10 μl of packed protein G Sepharose beads in an ice-cold buffer defined above. 30 μl of a mixture of phospholipids with or without Gβγs and/or Gαs (either GDP-bound or activated) was added to the 5 μl fractions, or 10 μl of beads, and mixed. […]

Assay [3] concerns Gβγ-activated PI3K (PI3Ks A and B; p117/p101 and p120/p101 heterodimers). In words: PI3K assay on purified pig neutrophil Gβγ-activated PI3Ks A and B. The class given is biochemical. Particulars: 100 nM wortmannin; 5 μM ATP in the assays.

T1 sequence (P48736 whole entry): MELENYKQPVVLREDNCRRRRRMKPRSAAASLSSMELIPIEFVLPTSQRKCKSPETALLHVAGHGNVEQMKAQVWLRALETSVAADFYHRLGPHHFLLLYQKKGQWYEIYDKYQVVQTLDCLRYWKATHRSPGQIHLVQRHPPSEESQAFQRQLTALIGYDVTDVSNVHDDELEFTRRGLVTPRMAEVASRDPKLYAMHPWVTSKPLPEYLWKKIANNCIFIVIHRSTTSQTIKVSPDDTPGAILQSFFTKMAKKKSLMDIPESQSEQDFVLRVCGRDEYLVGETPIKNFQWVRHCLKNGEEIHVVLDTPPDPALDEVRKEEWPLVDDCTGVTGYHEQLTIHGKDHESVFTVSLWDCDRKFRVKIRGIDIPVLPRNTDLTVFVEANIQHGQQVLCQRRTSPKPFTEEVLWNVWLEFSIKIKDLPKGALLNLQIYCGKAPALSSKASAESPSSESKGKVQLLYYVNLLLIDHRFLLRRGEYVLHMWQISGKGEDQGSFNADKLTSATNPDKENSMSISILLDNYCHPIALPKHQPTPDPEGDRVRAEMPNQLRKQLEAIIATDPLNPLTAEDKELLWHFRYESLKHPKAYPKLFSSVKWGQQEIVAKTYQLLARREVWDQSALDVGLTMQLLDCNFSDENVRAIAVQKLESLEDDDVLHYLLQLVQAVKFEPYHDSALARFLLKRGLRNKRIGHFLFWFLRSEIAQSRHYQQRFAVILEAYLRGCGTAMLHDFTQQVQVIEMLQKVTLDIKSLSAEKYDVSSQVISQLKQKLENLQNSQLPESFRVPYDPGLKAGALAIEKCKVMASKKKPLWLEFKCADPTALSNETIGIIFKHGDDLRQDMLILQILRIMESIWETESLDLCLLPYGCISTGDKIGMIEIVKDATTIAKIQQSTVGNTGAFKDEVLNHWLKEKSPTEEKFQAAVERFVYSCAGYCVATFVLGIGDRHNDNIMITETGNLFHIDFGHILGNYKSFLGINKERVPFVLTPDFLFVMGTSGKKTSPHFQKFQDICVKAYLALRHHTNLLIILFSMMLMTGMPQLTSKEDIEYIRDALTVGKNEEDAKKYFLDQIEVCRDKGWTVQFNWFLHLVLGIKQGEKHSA
T1 sequence (as listed by the source partner): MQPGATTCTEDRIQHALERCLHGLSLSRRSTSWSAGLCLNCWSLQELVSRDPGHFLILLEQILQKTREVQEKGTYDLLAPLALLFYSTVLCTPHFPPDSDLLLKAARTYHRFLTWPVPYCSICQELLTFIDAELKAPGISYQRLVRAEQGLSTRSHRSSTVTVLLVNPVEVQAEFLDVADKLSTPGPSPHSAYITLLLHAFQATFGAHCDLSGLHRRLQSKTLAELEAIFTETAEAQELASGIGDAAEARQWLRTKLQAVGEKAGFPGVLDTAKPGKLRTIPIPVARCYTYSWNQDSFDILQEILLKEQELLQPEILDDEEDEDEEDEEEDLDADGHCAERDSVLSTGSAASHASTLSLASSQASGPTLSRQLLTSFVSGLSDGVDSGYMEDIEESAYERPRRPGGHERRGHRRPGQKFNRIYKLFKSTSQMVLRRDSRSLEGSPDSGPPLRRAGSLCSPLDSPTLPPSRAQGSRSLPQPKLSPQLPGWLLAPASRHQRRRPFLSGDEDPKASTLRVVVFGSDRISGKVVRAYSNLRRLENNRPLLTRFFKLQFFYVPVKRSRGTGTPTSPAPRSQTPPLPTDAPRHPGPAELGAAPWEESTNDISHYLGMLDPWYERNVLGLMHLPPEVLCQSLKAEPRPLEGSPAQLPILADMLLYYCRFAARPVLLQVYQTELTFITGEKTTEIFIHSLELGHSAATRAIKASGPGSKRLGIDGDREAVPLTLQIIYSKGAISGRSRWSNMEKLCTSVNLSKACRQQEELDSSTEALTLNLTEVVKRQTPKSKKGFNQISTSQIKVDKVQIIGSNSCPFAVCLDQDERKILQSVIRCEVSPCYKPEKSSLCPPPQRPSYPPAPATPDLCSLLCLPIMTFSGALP
Chain of free p120 PI3K catalytic subunit (O02697 whole entry): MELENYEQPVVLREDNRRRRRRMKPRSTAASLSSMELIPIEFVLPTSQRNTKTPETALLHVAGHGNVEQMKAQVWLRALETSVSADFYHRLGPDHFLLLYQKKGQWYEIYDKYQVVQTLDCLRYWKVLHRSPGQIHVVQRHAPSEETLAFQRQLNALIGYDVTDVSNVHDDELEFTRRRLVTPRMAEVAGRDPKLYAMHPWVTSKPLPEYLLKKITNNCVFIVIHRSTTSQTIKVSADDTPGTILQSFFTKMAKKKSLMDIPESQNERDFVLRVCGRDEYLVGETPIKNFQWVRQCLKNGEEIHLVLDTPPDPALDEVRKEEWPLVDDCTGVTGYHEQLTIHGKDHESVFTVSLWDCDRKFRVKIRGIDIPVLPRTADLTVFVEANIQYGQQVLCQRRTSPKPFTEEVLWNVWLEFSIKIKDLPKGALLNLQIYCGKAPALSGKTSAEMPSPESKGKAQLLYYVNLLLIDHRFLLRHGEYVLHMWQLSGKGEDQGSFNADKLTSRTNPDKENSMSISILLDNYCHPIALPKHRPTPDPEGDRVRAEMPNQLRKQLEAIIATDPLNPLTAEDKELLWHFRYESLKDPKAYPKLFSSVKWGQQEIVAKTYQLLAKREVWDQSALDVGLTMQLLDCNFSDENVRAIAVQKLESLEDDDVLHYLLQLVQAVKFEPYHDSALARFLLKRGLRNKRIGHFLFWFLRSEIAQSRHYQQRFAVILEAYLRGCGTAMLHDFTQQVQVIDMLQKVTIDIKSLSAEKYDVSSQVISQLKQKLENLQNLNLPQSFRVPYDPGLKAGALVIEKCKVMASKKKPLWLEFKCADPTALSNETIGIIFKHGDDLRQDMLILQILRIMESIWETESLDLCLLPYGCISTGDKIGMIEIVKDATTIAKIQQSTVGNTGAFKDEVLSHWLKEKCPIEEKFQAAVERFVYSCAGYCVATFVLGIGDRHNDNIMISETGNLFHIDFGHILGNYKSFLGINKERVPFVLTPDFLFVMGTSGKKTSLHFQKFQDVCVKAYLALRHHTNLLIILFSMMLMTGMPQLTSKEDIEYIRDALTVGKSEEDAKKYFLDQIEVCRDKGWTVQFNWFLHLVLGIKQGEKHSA

Consider `COC[C@H]1OC(=O)c2coc3c2[C@@]1(C)C1=C(C3=O)[C@@H]2CCC(=O)[C@@]2(C)C[C@H]1OC(C)=O` [wortmannin], for which, in assay [1], the “wortmannin sensitivity of free p120 PI3K activity” value is “wortmannin-sensitive”. For the same compound, the “fMLP-induced respiratory burst response” value in the assay on neutrophils (Thelen et al., 1994) is given as “prevents”. Moreover, the “superoxide production in neutrophils” value in the assay on neutrophils is recorded as “shutdown of superoxide production”. Also, the “wortmannin sensitivity of PI3K activity in α-(EE)-p101 immunoprecipitates” value in assay [2] is on record as “wortmannin-sensitive”. In assay [3], the “inhibition of PI3K activity by wortmannin” value was “completely inhibited”.
